Assay results reported in patent US20220389003A1, “4-SUBSTITUTED INDOLE AND INDAZOLE SULFONAMIDO DERIVATIVES AS PARG INHIBITORS” (IDEAYA BIOSCIENCES, INC., priority 2019, published 2022).

Experiments:
PARG [1] = target: T1, PARG (Homo sapiens, UniProt Q86W56); assay: Inhibition of PARG enzymatic assay (TR-FRET enzymatic IC50 assay); type: biochemical; set-up: purchased Peak Proteins; conditions: hPARG 250 pM, biotinylated-PARylated PARP substrate 30 nM
Method: PARG enzyme was incubated with compound or vehicle (DMSO) and the biotinylated-PARylated PARP substrate in a microtiter plate. After adding detection antibody and streptavidin-europium, and then incubating, the plate was read for fluorescence intensity. The low control (DMSO) with low fluorescence intensity represents no inhibition of enzymatic reaction while the high control (no enzyme) with high fluorescence intensity represents full inhibition of enzymatic reaction.
• PARG • hPARG: 250 pM, His-tagged, Peak Proteins, 0.96 mg/mL (8.58 μM) • Substrate: 30 nM • Reaction time: 70 minutes • Substrate: hPARP1, His- and TEV-tagged, Peak Proteins, 14 μM • Detection Antibody: anti-His monoclonal antibody-ULight, Perkin Elmer catalog #TRF0105-M • Streptavidin-Europium: Perkin Elmer catalog #AD0062 • Assay buffer: 50 mM Tris-HCl pH 7.4, 50 mM KCl, 3 mM EDTA, 0.4 mM EGTA, 1 mM DTT, 0.01% Tween 20, 0.01% BSA • Temperature: 23° C. • Total volume: 20 μL
• 0% inhibition control: DMSO • 100% inhibition control: No enzyme
• 1. Transfer 5 μL of 3× final concentration of test compounds or DMSO to the appropriate wells of a microtiter plate. • 2. Centrifuge the plate at 1000 rpm for 1 minute. • 3. Transfer 5 μL of 3× final concentration of enzyme in assay buffer or assay buffer alone to the appropriate wells. • 4. Centrifuge the plate at 1000 rpm for 1 minute. • 5. Incubate the plate at room temperature for 1 hour. • 6. Transfer 5 μL of 3× substrate in assay buffer to all the test wells. • 7. Centrifuge the plate at 1000 rpm for 1 minute. • 8. Incubate the plate at room temperature for 10 minutes. • 9. Transfer 5 μL of 3× mixture of detection antibody and streptavidin-europium in assay buffer to all the test wells. • 10. Centrifuge the plate at 1000 rpm for 1 minute. • 11. Incubate the plate at room temperature for 1 hour. • 12. Read the plate on a plate reader (e.g., Infinite M1000).

PARG [2] = target: T1, PARG; assay: Inhibition of PARG cellular assay (PAR foci in HeLa cells after MMS); type: cell-based; set-up: endogenous in cells; host or cells: HeLa; conditions: compound 1 h then MMS 1 h
Method: The ability of the compounds disclosed herein to inhibit PARG was determined as described below. Briefly, after treating HeLa cells with the compounds of the disclosure for 1 h, followed by treatment with DNA alkylating agent methylmethanesulfonate (MMS) for an additional 1 h, the cells were fixed in 3.7% formaldehyde. The cells were permeabilized in 0.5% Triton-X100, blocked in 5% goat serum, and incubated with mouse monoclonal antibody against poly (ADP) ribose (PAR) polymer overnight at 4° C. The cells were washed and incubated with an Alexafluor 488-linked secondary antibody together with a nuclear stain (Hoechst 33342) for an hour at room temperature. After washing, images of the cells were captured and analyzed on a high content imaging microscope and software. Two measurement of PAR chain were quantified with the mean intensity over background of the nuclear foci (fluorescent signal at 488 nm range 0.3-2.0 μm foci) quantified as PAR foci (PAR Foci IC50). The cells with a PAR foci signal >1.3 was considered as positive (PAR % positive IC50), and the percentage positive cells are quantified.

T1 sequence (Q86W56 whole entry): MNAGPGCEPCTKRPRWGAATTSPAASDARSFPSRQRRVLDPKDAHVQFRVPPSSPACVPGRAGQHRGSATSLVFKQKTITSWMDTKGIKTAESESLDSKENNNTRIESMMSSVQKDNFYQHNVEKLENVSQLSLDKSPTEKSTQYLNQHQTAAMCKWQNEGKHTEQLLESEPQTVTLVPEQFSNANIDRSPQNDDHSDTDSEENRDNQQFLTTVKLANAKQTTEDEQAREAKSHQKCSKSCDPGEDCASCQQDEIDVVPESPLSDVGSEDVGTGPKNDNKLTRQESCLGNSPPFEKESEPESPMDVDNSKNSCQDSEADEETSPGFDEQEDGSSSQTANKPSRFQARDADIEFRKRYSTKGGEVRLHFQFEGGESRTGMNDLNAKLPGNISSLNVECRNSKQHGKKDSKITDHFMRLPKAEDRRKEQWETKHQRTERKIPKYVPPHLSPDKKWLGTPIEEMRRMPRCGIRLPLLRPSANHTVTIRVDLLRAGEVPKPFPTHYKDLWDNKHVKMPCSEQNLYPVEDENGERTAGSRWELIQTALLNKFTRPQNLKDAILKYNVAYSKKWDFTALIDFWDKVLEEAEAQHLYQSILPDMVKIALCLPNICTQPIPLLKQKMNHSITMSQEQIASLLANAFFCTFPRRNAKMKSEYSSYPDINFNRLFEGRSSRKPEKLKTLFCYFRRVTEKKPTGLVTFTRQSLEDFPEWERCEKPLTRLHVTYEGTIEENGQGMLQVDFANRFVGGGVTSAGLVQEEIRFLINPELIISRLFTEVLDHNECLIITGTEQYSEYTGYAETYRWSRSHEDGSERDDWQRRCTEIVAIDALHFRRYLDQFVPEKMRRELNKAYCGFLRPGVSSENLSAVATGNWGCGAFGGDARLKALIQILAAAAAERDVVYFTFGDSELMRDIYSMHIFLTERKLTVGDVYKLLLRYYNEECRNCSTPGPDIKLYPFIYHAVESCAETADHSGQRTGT

| SMILES | IC50 (PARG [1]) | IC50 (PARG [2]) |
| --- | --- | --- |
| N#CC1(NS(=O)(=O)c2cc(-c3c[nH]cn3)c3cnn(-c4nnc(C(F)F)s4)c3c2)CC1 [Example 9, 1-[({1-[5-(difluoromethyl)(1,3,4-thiadiazol-2-yl)]-4-imidazol-4-yl-1H-indazol-6-yl}sulfonyl)amino]cyclopropanecarbonitrile] | 300 to 1000 nM | 1000 to 10000 nM |
| N#CC1(NS(=O)(=O)c2cc(-c3ccnnc3)c3cnn(-c4nnc(C(F)F)s4)c3c2)CC1 [Example 10, 1-[({1-[5-(difluoromethyl)(1,3,4-thiadiazol-2-yl)]-4-pyridazin-4-yl-1H-indazol-6-yl}sulfonyl)amino]cyclopropanecarbonitrile] | 100 to 300 nM | 1000 to 10000 nM |
| N#CC1(NS(=O)(=O)c2cc(-c3cccnn3)c3cnn(-c4nnc(C(F)F)s4)c3c2)CC1 [Example 11, 1-[({1-[5-(difluoromethyl)(1,3,4-thiadiazol-2-yl)]-4-pyridazin-3-yl-1H-indazol-6-yl}sulfonyl)amino]cyclopropanecarbonitrile] | 100 to 300 nM | 1000 to 10000 nM |
| Cn1cnc(-c2cc(S(=O)(=O)NC3(C#N)CC3)cc3c2cnn3-c2nnc(C(F)F)s2)c1 [Example 12, 1-[({1-[5-(difluoromethyl)(1,3,4-thiadiazol-2-yl)]-4-(1-methylimidazol-4-yl)-1H-indazol-6-yl}sulfonyl)amino]cyclopropanecarbonitrile] | 300 to 1000 nM | 300 to 1000 nM |
| N#CC1(NS(=O)(=O)c2cc(-c3cscn3)c3cnn(-c4nnc(C(F)F)s4)c3c2)CC1 [Example 13, 1-[({1-[5-(difluoromethyl)(1,3,4-thiadiazol-2-yl)]-4-(1,3-thiazol-4-yl)-1H-indazol-6-yl}sulfonyl)amino]cyclopropanecarbonitrile] | 300 to 1000 nM | 300 to 1000 nM |
| N#CC1(NS(=O)(=O)c2cc(-c3ccncc3)c3cnn(-c4nnc(C(F)F)s4)c3c2)CC1 [Example 16, 1-[({1-[5-(difluoromethyl)(1,3,4-thiadiazol-2-yl)]-4-(4-pyridyl)-1H-indazol-6-yl}sulfonyl)amino]cyclopropanecarbonitrile] | 100 to 300 nM | 1000 to 10000 nM |
| N#CC1(NS(=O)(=O)c2cc(-c3cccnc3)c3cnn(-c4nnc(C(F)F)s4)c3c2)CC1 [Example 17, 1-[({1-[5-(difluoromethyl)(1,3,4-thiadiazol-2-yl)]-4-(3-pyridyl)-1H-indazol-6-yl}sulfonyl)amino]cyclopropanecarbonitrile] | 300 to 1000 nM | 1000 to 10000 nM |
| N#CC1(NS(=O)(=O)c2cc(-c3cnccn3)c3cnn(-c4nnc(C(F)F)s4)c3c2)CC1 [Example 18, 1-[({1-[5-(difluoromethyl)(1,3,4-thiadiazol-2-yl)]-4-pyrazin-2-yl-1H-indazol-6-yl}sulfonyl)amino]cyclopropanecarbonitrile] | 100 to 300 nM | 1000 to 10000 nM |
| COc1cc(-c2cc(S(=O)(=O)NC3(C(N)=O)CC3)cc3c2cnn3-c2nnc(C(F)F)s2)ncn1 [Example 19, 1-[({1-[5-(difluoromethyl)(1,3,4-thiadiazol-2-yl)]-4-(6-methoxypyrimidin-4-yl)-1H-indazol-6-yl}sulfonyl)amino]cyclopropanecarboxamide] | 300 to 1000 nM | 1000 to 10000 nM |
| COc1nccc(-c2cc(S(=O)(=O)NC3(C(N)=O)CC3)cc3c2cnn3-c2nnc(C(F)F)s2)n1 [Example 20, 1-[({1-[5-(difluoromethyl)(1,3,4-thiadiazol-2-yl)]-4-(2-methoxypyrimidin-4-yl)-1H-indazol-6-yl}sulfonyl)amino]cyclopropanecarboxamide] | 300 to 1000 nM | 1000 to 10000 nM |
| COc1cc(-c2cc(S(=O)(=O)NC3(C#N)CC3)cc3c2cnn3-c2nnc(C(F)F)s2)ncn1 [Example 22, 1-[({1-[5-(difluoromethyl)(1,3,4-thiadiazol-2-yl)]-4-(6-methoxypyrimidin-4-yl)-1H-indazol-6-yl}sulfonyl)amino]cyclopropanecarbonitrile] | – | 300 to 1000 nM |
| N#CC1(NS(=O)(=O)c2cc(N3CCC4(CCOC4)CC3)c3cnn(-c4nnc(C(F)F)s4)c3c2)CC1 [Example 29, 1-[({1-[5-(difluoromethyl)(1,3,4-thiadiazol-2-yl)]-4-(2-oxa-8-azaspiro[4.5]dec-8-yl)-1H-indazol-6-yl}sulfonyl)amino]cyclopropanecarbonitrile] | 100 to 300 nM | 300 to 1000 nM |
| N#CC1(NS(=O)(=O)c2cc(N3CCC4(CCOCC4)CC3)c3cnn(-c4nnc(C(F)F)s4)c3c2)CC1 [Example 30, 1-[({1-[5-(difluoromethyl)(1,3,4-thiadiazol-2-yl)]-4-(9-oxa-3-azaspiro[5.5]undec-3-yl)-1H-indazol-6-yl}sulfonyl)amino]cyclopropanecarbonitrile] | 300 to 1000 nM | 1000 to 10000 nM |
| N#CC1(NS(=O)(=O)c2cc(N3CCCOCC3)c3cnn(-c4nnc(C(F)F)s4)c3c2)CC1 [Example 42, 1-[({1-[5-(difluoromethyl)(1,3,4-thiadiazol-2-yl)]-4-(1,4-oxazaperhydroepin-4-yl)-1H-indazol-6-yl}sulfonyl)amino]cyclopropanecarbonitrile] | 1000 to 10000 nM | – |
| CN(C)C(=O)C1CN(c2cc(S(=O)(=O)NC3(C#N)CC3)cc3c2cnn3-c2nnc(C(F)F)s2)C1 [Example 55, [1-(1-[5-(difluoromethyl)(1,3,4-thiadiazol-2-yl)]-6-{[(cyanocyclopropyl)amino]sulfonyl}(1H-indazol-4-yl))azetidin-3-yl]-N,N-dimethylcarboxamide] | 300 to 1000 nM | – |
| N#CC1(NS(=O)(=O)c2cc(N3CCN4C(=O)OC[C@@H]4C3)c3cnn(-c4nnc(C(F)F)s4)c3c2)CC1 [Example 62, 1-[({4-((1S)-7-oxo-8-oxa-3,6-diazabicyclo[4.3.0]non-3-yl)-1-[5-(difluoromethyl) (1,3,4-thiadiazol-2-yl)]-1H-indazol-6-yl}sulfonyl)amino]cyclopropanecarbonitrile] | ≤ 100 nM | – |
| N#CC1(NS(=O)(=O)c2cc(N3CCCC4(COC4)C3)c3cnn(-c4nnc(C(F)F)s4)c3c2)CC1 [Example 65, 1-[({1-[5-(difluoromethyl)(1,3,4-thiadiazol-2-yl)]-4-(2-oxa-6-azaspiro[3.5]non-6-yl)-1H-indazol-6-yl}sulfonyl)amino]cyclopropanecarbonitrile] | 300 to 1000 nM | – |
| N#CC1(NS(=O)(=O)c2cc(N3CC4COCC(C3)N4)c3cnn(-c4nnc(C(F)F)s4)c3c2)CC1 [Example 70, 1-[({1-[5-(difluoromethyl)(1,3,4-thiadiazol-2-yl)]-4-(7-oxa-3,9-diazabicyclo-[3.3.1]non-3-yl)-1H-indazol-6-yl}sulfonyl)amino]cyclopropanecarbonitrile] | 100 to 300 nM | – |
| CN1Cc2cn(-c3cc(S(=O)(=O)NC4(C#N)CC4)cc4c3cnn4-c3nnc(C(F)F)s3)nc2C1 [Example 73, 1-[({1-[5-(difluoromethyl)(1,3,4-thiadiazol-2-yl)]-4-(5-methyl(3-pyrrolino[3,4-c]pyrazol-2-yl))-1H-indazol-6-yl}sulfonyl)amino]cyclopropanecarbonitrile] | 100 to 300 nM | 1000 to 10000 nM |
| CN(C)C(=O)N1CCCN(c2cc(S(=O)(=O)NC3(C#N)CC3)cc3c2cnn3-c2nnc(C(F)F)s2)CC1 [Example 78, [4-(1-[5-(difluoromethyl)(1,3,4-thiadiazol-2-yl)]-6-{[(cyanocyclopropyl)amino]-sulfonyl}(1H-indazol-4-yl))(1,4-diazaperhydroepinyl)]-N,N-dimethylcarboxamide] | 100 to 300 nM | – |
| N#CC1(NS(=O)(=O)c2cc(N3CCCC3)c3cnn(-c4nnc(C(F)F)s4)c3c2)CC1 [Example 101, 1-[({1-[5-(difluoromethyl)(1,3,4-thiadiazol-2-yl)]-4-pyrrolidinyl-1H-indazol-6-yl}sulfonyl)amino]cyclopropanecarbonitrile] | 1000 to 10000 nM | 1000 to 10000 nM |
| CN1CCN(c2cc(S(=O)(=O)NC3(C#N)CC3)cc3c2cnn3-c2nnc(C(F)F)s2)CC1 [Example 102, 1-[({1-[5-(difluoromethyl)(1,3,4-thiadiazol-2-yl)]-4-(4-methylpiperazinyl)-1H-indazol-6-yl}sulfonyl)amino]cyclopropanecarbonitrile] | 100 to 300 nM | 300 to 1000 nM |
